Assay results taken from ChEMBL document CHEMBL5150034, “Design, synthesis, molecular docking and pharmacological evaluation of novel triazine-based triazole derivatives as potential anticonvulsant agents” (Bioorg Med Chem Lett, 2022).

Tests used:
[1] = test system: Mus musculus; test: Anticonvulsant activity in MES induced mouse model of seizure assessed as protection against seizure at 1 mmol/Kg, ip relative to control; assay type: functional
[2] = test system: Mus musculus; test: Anticonvulsant activity in PTZ induced mouse model of seizure assessed as protection against seizure at 1 mmol/Kg, ip relative to control; assay type: functional
[3] = test system: Mus musculus; test: Anticonvulsant activity in ip dosed mouse model of seizure; assay type: functional
[4] = Toxicity in ip dosed mouse; assay type: organism-based; conditions: in vivo
[5] = Therapeutic index, ratio of LD50 for toxicity in ip dosed mouse to ED50 for anticonvulsant activity in ip dosed mouse model of seizure; assay type: organism-based; conditions: in vivo, read-out: TI
[6] = Protective index, ratio of TD50 for toxicity in ip dosed mouse to ED50 for anticonvulsant activity in ip dosed mouse model of seizure; assay type: organism-based; conditions: in vivo, read-out: Ratio TD50/ED50

SMILES | Activity [1] [%] | Activity [2] [%] | ED50 [3] [mmol/kg] | TD50 [4] [mmol/kg] | selectivity ratio [5] | selectivity ratio [6]
CC(=O)c1nnn(-c2nc(Cl)nc(Cl)n2)c1NCc1cc(F)c(F)c(F)c1 | 67 | 75 |  |  |  | 
CC(=O)c1nnn(-c2nc(Cl)nc(Cl)n2)c1NCc1ccccc1 | 33 | 48 |  |  |  | 
CC(=O)c1nnn(-c2nc(Cl)nc(Cl)n2)c1NCc1ccc(F)cc1 | 100 | 100 | 0.34 | 0.89 | 3.35 | 2.61
CC(=O)c1nnn(-c2nc(Cl)nc(Cl)n2)c1NCc1ccc(Cl)cc1 | 100 | 100 | 0.39 | 0.93 | 2.76 | 2.38
CC(=O)c1nnn(-c2nc(Cl)nc(Cl)n2)c1NCc1cc(F)cc(F)c1 | 83 | 100 | 0.46 | 0.97 | 2.21 | 2.1
CC(=O)c1nnn(-c2nc(Cl)nc(Cl)n2)c1NCc1ccc([N+](=O)[O-])cc1 | 100 | 100 | 0.27 | 0.83 | 4.14 | 3.07
CC(=O)c1nnn(-c2nc(Cl)nc(Cl)n2)c1NCc1ccc(C(F)(F)F)cc1 | 100 | 100 | 0.21 | 0.79 | 5.61 | 3.76
CC(=O)c1nnn(-c2nc(Cl)nc(Cl)n2)c1NCc1ccc(C)cc1 | 25 | 39 |  |  |  | 
COc1ccc(CNc2c(C(C)=O)nnn2-c2nc(Cl)nc(Cl)n2)cc1 | 10 | 25 |  |  |  | 
CC(=O)c1nnn(-c2nc(Cl)nc(Cl)n2)c1NCc1ccc(O)cc1 | 18 | 33 |  |  |  | 
Cc1ccccc1-n1c(C)nc2ccccc2c1=O [METHAQUALONE] | 100 | 100 | 1.46 | 1.64 | 1.4 | 1.12
CCCC(CCC)C(=O)O [VALPROIC ACID] | 100 | 100 | 4.61 | 9.63 | 2.59 | 2.08
